US20260183275A1, “SUBSTITUTED QUINOLONE COMPOUNDS USEFUL AS INHIBITORS OF TLR9” (Bristol-Myers Squibb Company, priority 2022, published 2026)

Experiments:
Assay type in all cases: cell-based
human TLR9 = target: T1, human TLR9 (Homo sapiens, UniProt Q9NR96); assay: TLR9 inhibition reporter assay (HEK-Blue cells, SEAP reporter); details: HEK-Blue cells overexpressing human TLR9; stimulated with ODN2006 5 nM; SEAP read after 22 hour; dose range 0.05 nM-50 μM
T1 construct: host or cells: HEK-Blue cells
T1 sequence (Q9NR96 26-1032): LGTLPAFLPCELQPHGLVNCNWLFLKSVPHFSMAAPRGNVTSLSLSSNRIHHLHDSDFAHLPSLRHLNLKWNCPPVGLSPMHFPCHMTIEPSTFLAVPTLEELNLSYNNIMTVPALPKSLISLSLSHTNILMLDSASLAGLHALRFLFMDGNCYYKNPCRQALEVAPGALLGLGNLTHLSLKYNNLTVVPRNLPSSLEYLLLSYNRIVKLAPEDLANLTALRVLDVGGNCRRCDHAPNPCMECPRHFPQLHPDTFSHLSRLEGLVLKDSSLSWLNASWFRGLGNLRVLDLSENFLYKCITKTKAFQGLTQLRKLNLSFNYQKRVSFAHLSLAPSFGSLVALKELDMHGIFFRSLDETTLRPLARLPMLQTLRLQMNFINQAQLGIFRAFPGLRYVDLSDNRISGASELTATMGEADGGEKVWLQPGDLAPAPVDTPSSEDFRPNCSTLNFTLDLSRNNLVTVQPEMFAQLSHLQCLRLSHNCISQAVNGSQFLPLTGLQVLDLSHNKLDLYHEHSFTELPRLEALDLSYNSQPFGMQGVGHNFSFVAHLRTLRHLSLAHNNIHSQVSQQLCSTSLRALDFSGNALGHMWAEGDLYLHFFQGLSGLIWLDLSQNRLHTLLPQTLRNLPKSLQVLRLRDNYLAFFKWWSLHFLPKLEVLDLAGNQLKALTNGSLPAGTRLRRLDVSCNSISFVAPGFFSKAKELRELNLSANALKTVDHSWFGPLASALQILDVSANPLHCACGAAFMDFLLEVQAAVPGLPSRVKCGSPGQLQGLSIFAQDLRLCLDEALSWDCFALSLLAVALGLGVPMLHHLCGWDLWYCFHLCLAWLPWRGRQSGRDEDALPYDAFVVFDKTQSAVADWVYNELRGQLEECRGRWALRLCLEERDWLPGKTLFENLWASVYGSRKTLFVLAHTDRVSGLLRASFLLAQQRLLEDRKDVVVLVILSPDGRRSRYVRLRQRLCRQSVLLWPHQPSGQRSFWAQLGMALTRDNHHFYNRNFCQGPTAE
Description: (§1) HEK-Blue™-cells (Invivogen) overexpressing human TLR7, TLR8 or TLR9 receptors were used for screening inhibitors of these receptors using an inducible SEAP (secreted embryonic alkaline phosphatase) reporter gene under the control of the IFN-β minimal promoter fused to five NF-κB and AP-1-binding sites. Briefly, cells are seeded into Greiner 384 well plates (15000 cells per well for TLR7, 20,000 for TLR8 and 25,000 for TLR9) and then treated with test compounds in DMSO to yield a final dose response concentration range of 0.05 nM-50 μM. After a 30 minute compound pre-treatment at room temperature, the cells are then stimulated with a TLR7 ligand (gardiquimod at a final concentration of 7.5 μM), TLR8 ligand (R848 at a final concentration of 15.9 μM) or TLR9 ligand (ODN2006 at a final concentration of 5 nM) to activate NF-κB and AP-1 which induce the production of SEAP. After a 22 hour incubation at 37° C., 5% CO2, SEAP levels are determined with the addition of HEK-Blue™ Detection reagent (Invivogen), a cell culture medium that allows for detection of SEAP, according to manufacturer's specifications. The percent inhibition is determined as the % reduction in the HEK-Blue signal present in wells treated with agonist plus DMSO alone compared to wells treated with a known inhibitor.

human TLR7 = target: T2, human TLR7 (Homo sapiens, UniProt Q9NYK1); assay: TLR7 inhibition reporter assay (HEK-Blue cells, SEAP reporter); details: HEK-Blue cells overexpressing human TLR7; stimulated with gardiquimod 7.5 μM; SEAP read after 22 hour; dose range 0.05 nM-50 μM
T2 construct: host or cells: HEK-Blue cells
T2 sequence (Q9NYK1 27-1049): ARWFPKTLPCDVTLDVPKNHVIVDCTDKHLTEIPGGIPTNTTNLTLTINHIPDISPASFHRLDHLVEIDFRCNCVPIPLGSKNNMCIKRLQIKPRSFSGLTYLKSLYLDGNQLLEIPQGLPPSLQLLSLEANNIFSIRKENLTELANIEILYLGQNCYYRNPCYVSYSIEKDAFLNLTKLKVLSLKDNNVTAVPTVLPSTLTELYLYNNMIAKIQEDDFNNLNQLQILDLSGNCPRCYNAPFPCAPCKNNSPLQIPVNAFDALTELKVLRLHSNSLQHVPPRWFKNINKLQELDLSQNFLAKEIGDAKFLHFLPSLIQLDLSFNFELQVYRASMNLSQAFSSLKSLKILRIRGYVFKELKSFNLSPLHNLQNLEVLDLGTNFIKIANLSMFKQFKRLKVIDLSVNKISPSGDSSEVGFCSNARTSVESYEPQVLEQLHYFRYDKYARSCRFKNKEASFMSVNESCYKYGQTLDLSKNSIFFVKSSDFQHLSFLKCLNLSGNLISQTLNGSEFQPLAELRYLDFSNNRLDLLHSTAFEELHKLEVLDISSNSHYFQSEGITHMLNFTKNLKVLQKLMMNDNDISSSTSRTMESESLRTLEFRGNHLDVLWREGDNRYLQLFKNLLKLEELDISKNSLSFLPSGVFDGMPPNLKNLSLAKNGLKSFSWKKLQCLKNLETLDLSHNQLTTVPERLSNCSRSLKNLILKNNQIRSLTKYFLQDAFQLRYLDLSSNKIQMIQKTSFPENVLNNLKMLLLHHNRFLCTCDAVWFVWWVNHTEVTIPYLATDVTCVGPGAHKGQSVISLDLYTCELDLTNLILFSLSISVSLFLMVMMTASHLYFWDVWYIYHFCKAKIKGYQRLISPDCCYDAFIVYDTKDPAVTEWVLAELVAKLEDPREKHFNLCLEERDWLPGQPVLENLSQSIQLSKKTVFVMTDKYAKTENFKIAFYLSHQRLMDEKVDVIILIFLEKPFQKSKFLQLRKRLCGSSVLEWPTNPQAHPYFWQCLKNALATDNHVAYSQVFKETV
Description: as §1

human TLR8 = target: T3, human TLR8 (Homo sapiens, UniProt Q9NR97); assay: TLR8 inhibition reporter assay (HEK-Blue cells, SEAP reporter); details: HEK-Blue cells overexpressing human TLR8; stimulated with R848 15.9 μM; SEAP read after 22 hour; dose range 0.05 nM-50 μM
T3 construct: host or cells: HEK-Blue cells
T3 sequence (Q9NR97 27-1041): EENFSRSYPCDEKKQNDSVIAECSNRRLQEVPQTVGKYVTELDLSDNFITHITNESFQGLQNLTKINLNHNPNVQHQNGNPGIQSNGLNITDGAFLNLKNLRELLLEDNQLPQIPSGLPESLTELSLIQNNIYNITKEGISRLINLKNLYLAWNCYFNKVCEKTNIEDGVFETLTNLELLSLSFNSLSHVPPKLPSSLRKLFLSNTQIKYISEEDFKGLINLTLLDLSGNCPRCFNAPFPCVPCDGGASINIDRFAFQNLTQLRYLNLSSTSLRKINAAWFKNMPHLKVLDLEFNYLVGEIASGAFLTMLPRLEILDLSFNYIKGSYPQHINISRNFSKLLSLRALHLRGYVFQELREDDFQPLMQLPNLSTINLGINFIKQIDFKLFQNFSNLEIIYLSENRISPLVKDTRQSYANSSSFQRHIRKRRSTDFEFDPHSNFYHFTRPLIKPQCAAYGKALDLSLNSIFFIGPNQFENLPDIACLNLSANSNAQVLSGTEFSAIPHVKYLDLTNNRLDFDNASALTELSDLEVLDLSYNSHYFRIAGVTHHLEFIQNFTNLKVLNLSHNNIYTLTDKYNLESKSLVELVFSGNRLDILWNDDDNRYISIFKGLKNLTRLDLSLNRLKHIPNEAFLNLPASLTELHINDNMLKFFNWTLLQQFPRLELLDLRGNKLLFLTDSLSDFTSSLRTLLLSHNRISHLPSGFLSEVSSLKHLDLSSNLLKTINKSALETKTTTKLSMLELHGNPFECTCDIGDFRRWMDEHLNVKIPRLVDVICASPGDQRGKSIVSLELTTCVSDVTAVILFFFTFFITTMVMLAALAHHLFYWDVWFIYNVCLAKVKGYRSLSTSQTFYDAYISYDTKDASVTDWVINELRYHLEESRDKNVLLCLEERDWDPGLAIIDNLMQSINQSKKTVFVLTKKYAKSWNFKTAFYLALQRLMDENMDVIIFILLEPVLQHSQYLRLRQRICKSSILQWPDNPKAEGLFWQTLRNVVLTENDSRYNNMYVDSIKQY
Description: as §1

Row | Compound | IC50 (human TLR9) | IC50 (human TLR7) | IC50 (human TLR8)
1 | CC(C)N1CCN(c2ccc(-c3ccc4[nH]c(=O)c(-c5ccc(OC(F)F)cc5)cc4c3)cc2)CC1 [Example 36, 3-[4-(difluoromethoxy)phenyl]-6-{4-[4-(propan-2-yl)piperazin-1-yl]phenyl}-1,2-dihydroquinolin-2-one] | 344 nM | ≥ 50000 nM | ≥ 50000 nM
2 | CC(C)N1CCN(c2ccc(-c3ccc4[nH]c(=O)c(-c5c(Cl)cccc5Cl)cc4c3)cc2)CC1 [Example 37] | 367 nM | 5560 nM | ≥ 50000 nM
3 | CC(C)N1CCN(c2ccc(-c3ccc4[nH]c(=O)c(-c5ccc(Cl)cc5Cl)cc4c3)cc2)CC1 [Example 38, 3-(2,4-dichlorophenyl)-6-{4-[4-(propan-2-yl)piperazin-1-yl]phenyl}-1,2-dihydroquinolin-2-one] | 376 nM | 8880 nM | ≥ 50000 nM
4 | CC(C)N1CCN(c2ccc(-c3ccc4[nH]c(=O)c(-c5ccc(Cl)cc5)cc4c3)cc2)CC1 [Example 39, 3-(4-chlorophenyl)-6-{4-[4-(propan-2-yl)piperazin-1-yl]phenyl}-1,2-dihydroquinolin-2-one] | 387 nM | ≥ 50000 nM | ≥ 50000 nM
5 | CC(C)N1CCN(c2ccc(-c3ccc4[nH]c(=O)c(-c5c(F)c(F)c(F)c(F)c5F)cc4c3)cc2)CC1 [Example 40, 3-(2,3,4,5,6-pentafluorophenyl)-6-{4-[4-(propan-2-yl)piperazin-1-yl]phenyl}-1,2-dihydroquinolin-2-one] | 399 nM | ≥ 50000 nM | ≥ 50000 nM
6 | CC(C)N1CCN(c2ccc(-c3ccc4[nH]c(=O)c(-c5c(F)cc(F)cc5F)cc4c3)cc2)CC1 [Example 41, 6-{4-[4-(propan-2-yl)piperazin-1-yl]phenyl}-3-(2,4,6-trifluorophenyl)-1,2-dihydroquinolin-2-one] | 411 nM | 4770 nM | ≥ 50000 nM
7 | CC(C)N1CCN(c2ccc(-c3ccc4[nH]c(=O)c(-c5ccccc5F)cc4c3)cc2)CC1 [Example 42, 3-(2-fluorophenyl)-6-{4-[4-(propan-2-yl)piperazin-1-yl]phenyl}-1,2-dihydroquinolin-2-one] | 427 nM | 2140 nM | 2470 nM

Compounds with a lower IC50 (human TLR9), results first:

Row | IC50 (human TLR9) | IC50 (human TLR7) | IC50 (human TLR8) | Compound
8 | 275 nM | 5860 nM | 1830 nM | CC(C)N1CCN(c2ccc(-c3ccc4[nH]c(=O)c(-c5ccccc5NS(C)(=O)=O)cc4c3)cc2)CC1 [Example 29, N-[2-(2-oxo-6-{4-[4-(propan-2-yl)piperazin-1-yl]phenyl}-1,2-dihydroquinolin-3-yl)phenyl]methanesulfonamide]
9 | 277 nM | 2160 nM | 5220 nM | COc1cccc(-c2cc3cc(-c4ccc(N5CCN(C(C)C)CC5)cc4)ccc3[nH]c2=O)c1 [Example 30, 3-(3-methoxyphenyl)-6-{4-[4-(propan-2-yl)piperazin-1-yl]phenyl}-1,2-dihydroquinolin-2-one]
10 | 286 nM | 42600 nM | 16700 nM | CC(C)N1CCN(c2ccc(-c3ccc4[nH]c(=O)c(-c5ccc(F)cc5)cc4c3)cc2)CC1 [Example 31, 3-(4-fluorophenyl)-6-{4-[1-(propan-2-yl)piperazin-1-yl]phenyl}-1,2-dihydroquinolin-2-one]
11 | 293 nM | 418 nM | 17 nM | CC(C)N1CCN(c2ccc(-c3ccc4[nH]c(=O)c(-c5cccnc5)cc4c3)cc2)CC1 [Example 32, 6-{4-[4-(propan-2-yl)piperazin-1-yl]phenyl}-3-(pyridin-3-yl)-1,2-dihydroquinolin-2-one]
12 | 300 nM | 2230 nM | 4700 nM | CC(C)N1CCN(c2ccc(-c3ccc4[nH]c(=O)c(-c5ccccc5C(F)(F)F)cc4c3)cc2)CC1 [Example 33, 6-{4-[4-(propan-2-yl)piperazin-1-yl]phenyl}-3-[2-(trifluoromethyl)phenyl]-1,2-dihydroquinolin-2-one]
13 | 314 nM | 1290 nM | 14100 nM | CC(C)N1CCN(c2ccc(-c3ccc4[nH]c(=O)c(-c5nn(C)c6ccccc56)cc4c3)cc2)CC1 [Example 35, 3-(1-methyl-1H-indazol-3-yl)-6-{4-[4-(propan-2-yl)piperazin-1-yl]phenyl}-1,2-dihydroquinolin-2-one]
